Counter-ions that a name gives are not always drawn.
Tests used:
[1] = test system: SKOV3; experiment: Microculture tetrazolium assay; type: cell-based; details: Homo sapiens, SK-OV-3, SKOV3; read-out: IC50
[2] = test system: MATB/ADR; experiment: Soft agar colony formation disk diffusion assay; type: cell-based, rat
Procedure, shortened: (§1)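 Anti-clonogenic activity is scored as the distance from the drug-loaded disk edge to the closest colony of more than 50 cells. Solid tumour and leukaemia lines are plated in separate dishes in two-layer soft agar and incubated 10-20 days at 37° C.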

[3] = test system: MATB.WT; experiment: Soft agar colony formation disk diffusion assay; type: cell-based, rat
Procedure, shortened: as §1

[4] = test system: Renal; experiment: NCI assay, average per cancer type; details: Homo sapiens; for CC50: 48 h, read-out: Average LOG10 LC50; for GI50: read-out: Average LOG10 GI50
[5] = test system: Ovarian; experiment: NCI assay, average per cancer type; details: Homo sapiens; for CC50: 48 h, read-out: Average LOG10 LC50; for GI50: read-out: Average LOG10 GI50
[6] = test system: T47D; experiment: Microculture tetrazolium assay; type: cell-based; details: Homo sapiens, read-out: IC50
[7] = test system: LOX; experiment: Microculture tetrazolium assay; type: cell-based; details: read-out: IC50
[8] = test system: tumor cell lines; experiment: NCI sulforhodamine B assay, all cell lines; details: for CC50 / IC100 / GI50: Homo sapiens; for CC50 / IC100: 48 h; for CC50: read-out: Log10 LC50, Mean / MG-MID, all cell lines (converted); for IC100: read-out: Log10 TGI, Mean / MG-MID, all cell lines; for GI50: read-out: Log10 GI50, Mean / MG-MID, all cell lines (converted)
[9] = test system: HT29; experiment: Microculture tetrazolium assay; type: cell-based; details: Homo sapiens, HT-29, HT29; read-out: IC50
[10] = test system: LL; experiment: Soft agar colony formation disk diffusion assay; type: cell-based, murine
Procedure, shortened: as §1

[11] = test system: B16; experiment: Soft agar colony formation disk diffusion assay; type: cell-based, murine
Procedure, shortened: as §1

[12] = test system: P388/ADR; experiment: Soft agar colony formation disk diffusion assay; type: cell-based, murine
Procedure, shortened: as §1

[13] = test system: M5076; experiment: Soft agar colony formation disk diffusion assay; type: cell-based, murine
Procedure, shortened: as §1

[14] = test system: P388; experiment: Soft agar colony formation disk diffusion assay; type: cell-based, murine
Procedure, shortened: as §1

[15] = test system: NSC Lung; experiment: NCI assay, average per cancer type; details: Homo sapiens; for CC50: 48 h, read-out: Average LOG10 LC50; for GI50: read-out: Average LOG10 GI50

| SMILES | IC50 [1] [µM] | zone of inhibition ([2]; 10 μg/DISK) [Zone Units] | zone of inhibition ([2]; 100 μg/DISK) [Zone Units] | zone of inhibition ([3]; 10 μg/DISK) [Zone Units] | zone of inhibition ([3]; 100 μg/DISK) [Zone Units] | CC50 [4] [µM] | GI50 [4] [µM] | CC50 [5] [µM] | GI50 [5] [µM] | IC50 [6] [µM] | IC50 [7] [µM] | CC50 [8] [µM] | IC100 [8] [µM] | GI50 [8] [µM] | IC50 [9] [µM] | zone of inhibition ([10]; 100 μg/DISK) [Zone Units] | zone of inhibition ([11]; 10 μg/DISK) [Zone Units] | zone of inhibition ([11]; 100 μg/DISK) [Zone Units] | zone of inhibition ([12]; 10 μg/DISK) [Zone Units] | zone of inhibition ([12]; 100 μg/DISK) [Zone Units] | other results |
| --- | --- | --- | --- | --- | --- | --- | --- | --- | --- | --- | --- | --- | --- | --- | --- | --- | --- | --- | --- | --- | --- |
| COC(=O)[C@H]1CC2=C(C(=O)c3c(c(OC)c4ccccc4c3O)C2=O)[C@H](O[C@H]2C[C@H](NC(=O)C(F)(F)F)[C@H](O)[C@H](C)O2)O1 (mixture of isomers) [BCH-675, (1'S,1S,3R) and 1'S,1R,3S) Methyl(11-hydroxy-6-methoxy-1-[2',3',6'-trideoxy-3-trifluoroacetamido-4'-hydroxy-L-lyxohexopyranose]-5,12-dioxo-3,4,5,12-tetrahydroanthra-ceno[2,3-c]pyran-3-yl) formate] | 9.16 | 22.3 ± 3.5 | 59.4 ± 8.6 | 0 | 32.5 ± 9.3 | 56.2 | 9.12 | 63.1 | 8.51 | 2.8 | 4.29 | 57.5 | 21.4 | 7.94 | 5.26 | 264.0 ± 38.0 | 0 | 0 | 10.1 ± 9.3 | 146.3 ± 32.3 | zone of inhibition ([10]; 10 μg/DISK): 75.2 ± 40.5 Zone Units; zone of inhibition ([13]; 10 μg/DISK): 0 Zone Units; zone of inhibition ([13]; 100 μg/DISK): 142.0 ± 35.2 Zone Units; zone of inhibition ([14]; 10 μg/DISK): 0 Zone Units; zone of inhibition ([14]; 100 μg/DISK): 152.5 ± 30.5 Zone Units; CC50 [15]: 56.2 µM; GI50 [15]: 9.33 µM |
| CCOC(=O)C1CC2=C(CO1)C(=O)c1c(cc3ccccc3c1O)C2=O (stereo not drawn) [BCH-651, Ethyl(6 and 11 hydroxy-5,12-dioxo-3,4,5,12-tetrahydro-anthraceno[2,3-c]pyran-3-yl)]formate] | 20.8 | 0 | 100.0 | 0 | 36.6 ± 8.6 | 55 | 10 | 46.8 | 5.89 | 36.3 | 22.1 | 58.9 | 21.4 | 5.5 | 17 | 27.4 ± 4.3 | 0 | 27.5 ± 13.4 | 10.0 ± 0.0 | 30.5 ± 8.6 | antiproliferative and cytotoxic activity in words [8]: strong antiproliferative (GI50) and potent cytotoxic (LC50) activities; zone of inhibition ([13]; 10 μg/DISK): 15.2 ± 4.3 Zone Units; zone of inhibition ([13]; 100 μg/DISK): 51.3 ± 43.3 Zone Units; zone of inhibition ([14]; 10 μg/DISK): 45.7 ± 12.9 Zone Units; zone of inhibition ([14]; 100 μg/DISK): 294.5 ± 101.1 Zone Units; CC50 [15]: 50.1 µM; GI50 [15]: 7.76 µM |
